Experimental data published in PubChem BioAssay AID2060501 (Molecular Pharmacology Branch, DTP, NCI, 2025).

Tested on: 282377-053-R-J1-PDC complex spheroids, viability
Assay: Anticancer human tumor 282377-053-R-J1-PDC patient-derived colon adenocarcinoma cell line growth inhibition [GQUAD]
Conditions: for IC50: curve of first compound; for viability, T/C: stronger effect = lower value
Procedure, shortened: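 Viability of tumor cells grown as complex spheroids with endothelial and stromal cells, exposed to drug combinations. Top concentration at or near clinical Cmax (else 10 microM), diluted in half-log increments.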

[1] = second compound 0.0316 µM, first compound 0.000999 µM
[2] = second compound 0.0316 µM, first compound 0.00316 µM
[3] = second compound 0.0316 µM, first compound 0.00999 µM
[4] = second compound 0.0316 µM, first compound 0.0316 µM
[5] = second compound 0.0316 µM, first compound 0.0999 µM
[6] = second compound 0.0316 µM, first compound 0.316 µM
[7] = second compound 0.1 µM, first compound 0.000999 µM
[8] = second compound 0.1 µM, first compound 0.00316 µM
[9] = second compound 0.1 µM, first compound 0.00999 µM
[10] = second compound 0.1 µM, first compound 0.0316 µM
[11] = second compound 0.1 µM, first compound 0.0999 µM
[12] = second compound 0.1 µM, first compound 0.316 µM
[13] = second compound 0.316 µM, first compound 0.000999 µM
[14] = second compound 0.316 µM, first compound 0.00316 µM
[15] = second compound 0.316 µM, first compound 0.00999 µM
[16] = second compound 0.316 µM, first compound 0.0316 µM
[17] = second compound 0.316 µM, first compound 0.0999 µM
[18] = second compound 0.316 µM, first compound 0.316 µM
[19] = second compound 1 µM, first compound 0.000999 µM
[20] = second compound 1 µM, first compound 0.00316 µM
[21] = second compound 1 µM, first compound 0.00999 µM
[22] = second compound 1 µM, first compound 0.0316 µM
[23] = second compound 1 µM, first compound 0.0999 µM
[24] = second compound 1 µM, first compound 0.316 µM
[25] = second compound 3.16 µM, first compound 0.000999 µM
[26] = second compound 3.16 µM, first compound 0.00316 µM
[27] = second compound 3.16 µM, first compound 0.00999 µM
[28] = second compound 3.16 µM, first compound 0.0316 µM
[29] = second compound 3.16 µM, first compound 0.0999 µM
[30] = second compound 3.16 µM, first compound 0.316 µM
[31] = second compound 10 µM, first compound 0.000999 µM
[32] = second compound 10 µM, first compound 0.00316 µM
[33] = second compound 10 µM, first compound 0.00999 µM
[34] = second compound 10 µM, first compound 0.0316 µM
[35] = second compound 10 µM, first compound 0.0999 µM
[36] = second compound 10 µM, first compound 0.316 µM
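Further: spheroids exposed to compounds for 7 days before readout.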
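Wherever viability, T/C is given: percent of vehicle DMSO control viability with 100% = untreated-like growth.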

CC[C@@]1(O)C(=O)OCc2c1cc1n(c2=O)Cc2cc3c(CN(C)C)c(O)ccc3nc2-1 + CN(C)c1ccc(Nc2c3ccc(NC(=O)CCN4CCCC4)cc3nc3cc(NC(=O)CCN4CCCC4)ccc23)cc1
IC50 (second compound 0.0316 µM): > 316 nM | IC50 (second compound 0.1 µM): > 316 nM | IC50 (second compound 0.316 µM): > 316 nM | IC50 (second compound 1 µM): > 316 nM | IC50 (second compound 3.16 µM): > 316 nM | IC50 (second compound 10 µM): > 316 nM | viability, T/C [1]: 108% | viability, T/C [2]: 102% | viability, T/C [3]: 103% | viability, T/C [4]: 118% | viability, T/C [5]: 104% | viability, T/C [6]: 91% | viability, T/C [7]: 92.8% | viability, T/C [8]: 103% | viability, T/C [9]: 95.2% | viability, T/C [10]: 107% | viability, T/C [11]: 115% | viability, T/C [12]: 90.5% | viability, T/C [13]: 105% | viability, T/C [14]: 113% | viability, T/C [15]: 88.5% | viability, T/C [16]: 88.3% | viability, T/C [17]: 104% | viability, T/C [18]: 101% | viability, T/C [19]: 99.3% | viability, T/C [20]: 101% | viability, T/C [21]: 93% | viability, T/C [22]: 89.7% | viability, T/C [23]: 108% | viability, T/C [24]: 87% | viability, T/C [25]: 90.6% | viability, T/C [26]: 87.3% | viability, T/C [27]: 97.8% | viability, T/C [28]: 86.2% | viability, T/C [29]: 102% | viability, T/C [30]: 82.2% | viability, T/C [31]: 88.5% | viability, T/C [32]: 85.7% | viability, T/C [33]: 94.7% | viability, T/C [34]: 79.7% | viability, T/C [35]: 77.3% | viability, T/C [36]: 97%

COc1cc(C2c3cc4c(cc3C(OC3OC5COC(C)OC5C(O)C3O)C3COC(=O)C23)OCO4)cc(OC)c1O (stereo unspecified) + Cc1cnc(CNC(=O)c2c(=O)c3ccc(N4CCCN(C)CC4)nc3n3c2sc2ccccc23)cn1
IC50 (second compound 0.0316 µM): > 10000 nM | IC50 (second compound 0.1 µM): 9720 nM | IC50 (second compound 0.316 µM): > 10000 nM | IC50 (second compound 1 µM): > 10000 nM | IC50 (second compound 3.16 µM): 979 nM | IC50 (second compound 10 µM): 337 nM | viability, T/C [4]: 127% | viability, T/C (second compound 0.0316 µM, first compound 0.1 µM): 95% | viability, T/C [6]: 126% | viability, T/C (second compound 0.0316 µM, first compound 1 µM): 90% | viability, T/C (second compound 0.0316 µM, first compound 3.16 µM): 68.3% | viability, T/C (second compound 0.0316 µM, first compound 10 µM): 50.8% | viability, T/C [10]: 109% | viability, T/C (second compound 0.1 µM, first compound 0.1 µM): 91.3% | viability, T/C [12]: 107% | viability, T/C (second compound 0.1 µM, first compound 1 µM): 76.1% | viability, T/C (second compound 0.1 µM, first compound 3.16 µM): 72.7% | viability, T/C (second compound 0.1 µM, first compound 10 µM): 48.6% | viability, T/C [16]: 103% | viability, T/C (second compound 0.316 µM, first compound 0.1 µM): 91.9% | viability, T/C [18]: 87.1% | viability, T/C (second compound 0.316 µM, first compound 1 µM): 68.8% | viability, T/C (second compound 0.316 µM, first compound 3.16 µM): 66.4% | viability, T/C (second compound 0.316 µM, first compound 10 µM): 50.9% | viability, T/C [22]: 70.7% | viability, T/C (second compound 1 µM, first compound 0.1 µM): 51.3% | viability, T/C [24]: 70.2% | viability, T/C (second compound 1 µM, first compound 1 µM): 63% | viability, T/C (second compound 1 µM, first compound 3.16 µM): 62.7% | viability, T/C (second compound 1 µM, first compound 10 µM): 41.6% | viability, T/C [28]: 60.5% | viability, T/C (second compound 3.16 µM, first compound 0.1 µM): 57.5% | viability, T/C [30]: 49.8% | viability, T/C (second compound 3.16 µM, first compound 1 µM): 48.5% | viability, T/C (second compound 3.16 µM, first compound 3.16 µM): 52.1% | viability, T/C (second compound 3.16 µM, first compound 10 µM): 37.4% | viability, T/C [34]: 45.4% | viability, T/C (second compound 10 µM, first compound 0.1 µM): 49.7% | viability, T/C [36]: 56.3% | viability, T/C (second compound 10 µM, first compound 1 µM): 49.1% | viability, T/C (second compound 10 µM, first compound 3.16 µM): 42.1% | viability, T/C (second compound 10 µM, first compound 10 µM): 26.3%

Cc1[nH]c2ccccc2c1CCNCc1ccc(/C=C/C(=O)NO)cc1 + Cc1[nH]c2ccc(F)cc2c1-c1nc2c3cccnc3c3ncccc3c2[nH]1
IC50 (second compound 0.0316 µM): > 316 nM | IC50 (second compound 0.1 µM): > 316 nM | IC50 (second compound 0.316 µM): > 316 nM | IC50 (second compound 1 µM): > 316 nM | IC50 (second compound 3.16 µM): 196 nM | IC50 (second compound 10 µM): < 0.999 nM | viability, T/C [1]: 87.8% | viability, T/C [2]: 100% | viability, T/C [3]: 105% | viability, T/C [4]: 90.3% | viability, T/C [5]: 93% | viability, T/C [6]: 96.8% | viability, T/C [7]: 97.4% | viability, T/C [8]: 98.9% | viability, T/C [9]: 79.9% | viability, T/C [10]: 89.9% | viability, T/C [11]: 74.6% | viability, T/C [12]: 70.7% | viability, T/C [13]: 102% | viability, T/C [14]: 106% | viability, T/C [15]: 74.6% | viability, T/C [16]: 97.4% | viability, T/C [17]: 97.8% | viability, T/C [18]: 96.1% | viability, T/C [19]: 116% | viability, T/C [20]: 95.8% | viability, T/C [21]: 93.8% | viability, T/C [22]: 101% | viability, T/C [23]: 87.9% | viability, T/C [24]: 88.1% | viability, T/C [25]: 70.8% | viability, T/C [26]: 75.7% | viability, T/C [27]: 60.9% | viability, T/C [28]: 66.2% | viability, T/C [29]: 67.1% | viability, T/C [30]: 38.1% | viability, T/C [31]: 32.5% | viability, T/C [32]: 33.9% | viability, T/C [33]: 52.2% | viability, T/C [34]: 34.4% | viability, T/C [35]: 22.3% | viability, T/C [36]: 25.2%
